Assay results from patent publication EP0328029A2, “Cholesterol-esterase colour substrate” (BOEHRINGER MANNHEIM GMBH, priority 1988, dated 1989).

What was measured:
[1] = test system: Cholesterinesterase (Cholesterinesterhydrolase EC 3.1.1.13); assay: Cholesterol esterase test with cholesterol oleate as substrate (Bergmeyer UV method, comparison); assay type: biochemical
Excerpt: Bekannt ist die photometrische Bestimmung im UV. Freigesetztes Cholesterin wird mittels Cholesterinoxidase zu Cholestenon oxidiert, das anhand der Absorptionszunahme bei λ = 240 nm gemessen werden kann (Bergmeyer, Methods of Enzymatic Analysis, 3th.Ed., Vol.II, S.168). Alternativ wird das bei dieser Oxidation gebildete Wasserstoff peroxid durch eine Farb-Reaktion bestimmt (Stähler, Med.Lab. 30, 29 (77)). Diese Methoden sind umständlich und ebenfalls störanfällig.
(§1) Zum Vergleich wurde der Cholesterinesterase-Test mit Cholesterinoleat als Substrat durchgeführt (Bergmeyer, Methods of Enzymatic Analysis, 3th.Ed., Vol.II, S. 168) und mit dem Farbtest gemäß Beispiel 2 verglichen und der Korrelationskoeffizient ermittelt. Die Ergebnisse zeigen Tabelle I und Figur 1. TABELLE I

[2] = test system: Cholesterinesterase (Cholesterinesterhydrolase EC 3.1.1.13); assay: Cholesterol esterase colour test according to Example 2 (photometric release of resorufin); assay type: biochemical; conditions: λ = 571 nm, 25°C, 0,1 M Kalium-Phosphat-Puffer pH 6,8
Protocol: 2 mg Cholesterin-glutarsäureresorufinester werden in 0,5 ml Dioxan und 0,5 ml Thesit® gelöst.
Zur Messung werden 850 µl 0,1 M Kalium-Phosphat-Puffer pH 6,8 und 50 µl der oben beschriebenen Substratlösung in einer Küvette gut durchgemischt. Nach Zugabe von 100 µl Probe (Enzymlösung) wird ΔE/min photometrisch bei λ = 571 nm bestimmt (Temperatur = 25°C).
Bei Auswertung über einen Standard bekannter Cholesterinesteraseaktivität wird die Cholesterinesteraseaktivität der Probe wie folgt berechnet [formula] Eine Berechnung der Cholesterinesteraseaktivität der Probe ist auch nach folgender Formel möglich: [formula] Vges : Gesamtvolumen des Testansatzes [cm³] VProbe : Volumen der Probe [cm³] ε : Extinktionskoeefizient des Chromogens bei 571 nm d : Schichtdicke der Küvette [cm] ΔE/min : Extinktionsänderung pro Minute bei 571 nm
Bei den genannten Reaktionsbedingungen beträgt der Extinktionskoeffizient ε = 60,00·cm² ·µmol⁻¹.
as §1

SMILES | ΔE/min ([1]; Konz. 1,0 mg/ml) | ΔE/min ([1]; Konz. 1,3 mg/ml) | ΔE/min ([1]; Konz. 2,0 mg/ml) | ΔE/min ([1]; Konz. 5,0 mg/ml) | ΔE/min ([1]; Konz. 6,6 mg/ml) | ΔE/min ([1]; Konz. 10,0 mg/ml) | ΔE/min ([2]; Konz. 1,0 mg/ml) | ΔE/min ([2]; Konz. 1,3 mg/ml) | ΔE/min ([2]; Konz. 2,0 mg/ml) | ΔE/min ([2]; Konz. 5,0 mg/ml) | ΔE/min ([2]; Konz. 10,0 mg/ml)
CCCCCCCC/C=C\CCCCCCCC(=O)O[C@H]1CC[C@@]2(C)C(=CC[C@H]3[C@@H]4CC[C@H]([C@H](C)CCCC(C)C)[C@@]4(C)CC[C@@H]32)C1 [Cholesterin-Oleat, Cholesterinoleat] | 0,007 | 0,011 | 0,015 | 0,036 | 0,045 | 0,072 |  |  |  |  | 
CC(C)CCC[C@@H](C)[C@H]1CC[C@H]2[C@@H]3CC=C4C[C@@H](OC(=O)CCCC(=O)Oc5ccc6nc7ccc(=O)cc-7oc6c5)CC[C@]4(C)[C@H]3CC[C@]12C [Cholesterin-Glutarsäure-Resorufinester, Cholesterin-glutarsäure-resorufinester] |  |  |  |  |  |  | 0,009 | 0,013 | 0,015 | 0,033 | 0,071
